# Source: patent publication US10881677B2, “Composition for modulating IRAK1” (Agency for Science, Technology and Research, priority 2015, dated 2021)
# “Also recorded” adds a separate entry of the source.
# Tests used:
# [1] = system: SUM159-PR and MDA231-PR cells; experiment: Apoptosis by FACS analysis of Sub-G1 cells; type: cell-based; conditions: for sensitization of Paclitaxel for apoptosis: Paclitaxel-resistant cells (SUM159-PR, MDA231-PR), inhibitor together with Paclitaxel
# Procedure: Cell cycle analysis was done by DNA content quantification to quantify the sub-G1 population which is reflective of the extent of cell death. Briefly, the cells were fixed with 70% ethanol and stained with propidium iodide (50 μg/ml) staining. The stained cells were analyzed by FACScalibur (BD Bioscience) and quantified by using CellQuest software (BD bioscience).
# p-IRAK1 (T209) = target: T1, p-IRAK1 (T209) (Homo sapiens, UniProt P51617); experiment: Western blot of p-IRAK1 in immunoprecipitated IRAK1; type: cell-based; conditions: for induction of p-IRAK1 by chemotherapeutic agent: MDA231 (also SUM159) cells, PTX 5 nM, ADR 2 μM, Cisplatin 5 μM, up to 48 hours; for IRAK1 signaling activated by chemotherapeutic agents: discussion statement
# T1 construct: The whole cell lysate were extracted with the NE-PER kit (Pierce Biotechnology) and subjected to immunoprecipitation using 2 μg total-IRAK1 antibody; endogenous in cells; host or cells: TNBC cell lines (BT549, MB436, MB468, MDA231, MDA231-LM2, SUM159 and paclitaxel-resistant sublines)
# T1 sequence (P51617 whole entry): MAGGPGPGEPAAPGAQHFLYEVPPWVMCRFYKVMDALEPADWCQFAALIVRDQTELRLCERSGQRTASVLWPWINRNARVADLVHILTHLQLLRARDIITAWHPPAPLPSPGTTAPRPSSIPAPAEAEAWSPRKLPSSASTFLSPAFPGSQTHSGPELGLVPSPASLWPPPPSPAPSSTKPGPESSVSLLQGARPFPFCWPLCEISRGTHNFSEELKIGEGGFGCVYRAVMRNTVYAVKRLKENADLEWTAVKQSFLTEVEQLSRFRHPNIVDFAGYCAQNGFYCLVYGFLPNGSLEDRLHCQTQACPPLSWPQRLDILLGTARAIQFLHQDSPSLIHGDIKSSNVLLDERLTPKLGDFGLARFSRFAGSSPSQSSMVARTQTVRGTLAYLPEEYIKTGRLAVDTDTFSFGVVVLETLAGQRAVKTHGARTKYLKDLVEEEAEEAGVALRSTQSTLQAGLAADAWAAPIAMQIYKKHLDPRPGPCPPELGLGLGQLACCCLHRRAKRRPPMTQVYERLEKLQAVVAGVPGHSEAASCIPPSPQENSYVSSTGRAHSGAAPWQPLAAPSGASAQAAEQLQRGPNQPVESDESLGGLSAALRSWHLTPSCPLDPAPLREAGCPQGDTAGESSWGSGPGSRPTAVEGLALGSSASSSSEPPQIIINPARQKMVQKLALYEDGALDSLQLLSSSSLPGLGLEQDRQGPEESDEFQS
# Procedure: (§1) Western Blotting was performed as described previously (8). IRAK1 (Cat no: #4359), IRAK4 (Cat no.: 4363), cleaved PARP (Cat no.: #9541), p38 MAPK (Cat no.: #9212), phospho-p38 MAPK (T180/Y182) (Cat no.: #9211), phospho-NF-KappaB p65 (S536) (Cat no. #3031) were purchased from Cell Signaling (Danvers, Mass.). Phospho-IRAK1 (T209) antibody was purchased from Assay Biotech (Sunnyvale, Calif., Cat no.: A1074) and phospho-IRAK1 (S376) antibody from Genetex (Irvine, Calif., Cat no.: GTX50994). MCL-1 antibody was purchased from Santa Cruz Biotechnology (Santa Cruz, Calif., Cat no.: sc-819). Actin was purchased from Sigma-Aldrich (St Louis, Mo., Cat no.: A5441). Detection of bands was performed with the ChemiDoc™ MP Imaging Systems (Bio-Rad, Hercules, Calif.) and bands were subjected to further densitometric analysis with Image Lab software (Version 4.1, Bio-rad, Hercules, Calif.).
# Co-IP was performed as described previously (9). The whole cell lysate were extracted with the NE-PER kit (Pierce Biotechnology) and subjected to immunoprecipitation using 2 μg total-IRAK1 antibody (Santa Cruz Biotech, Santa Cruz, Calif., Cat no.: sc-7883). The precipitated protein complex was captured using protein A-Agarose beads (Roche) and extensively washed with the washing buffer (50 mM Tris-HCl, 150 mM NaCl, 0.1% triton). The precipitated proteins were dissolved in SDS sample buffer along with 3 mM DTT, and subjected to immunoblotting analysis. Phospho-IRAK1 (T209) (Assay Biotechnology, Sunnyvale, Calif., Cat no.: A1074) was used for detection.
# MDA231-PR cells = experiment: Cell viability IC50 curves, sensitivity of paclitaxel-resistant cells to agents; type: cell-based; conditions: for shift of the IC50 curve: MDA231-PR versus parental MDA-MB-231; for sensitivity of paclitaxel-resistant cells to agent: paclitaxel-treated/resistant cells over-expressing p-IRAK1
# Source text: (§2) FIG. 17. (a). IC50 curves showing cell viability after treatment with paclitaxel (PTX), vincristine (VCR), gemcitabine, doxorubicin (ADR), cisplatin, 5-fluorouracil (5-FU) and pacritinib in parental and pacitaxel-treated MDA-MB-231 (MDA231-PR) cells. (b). Graphical representation of relative sensitivities. (c).
# (§3) For cell proliferation assay, the optimal cell seeding was first determined empirically for all cell lines by examining the growth of a wide range of seeding densities in a 96-well format to identify conditions that permitted proliferation for 7 days. Cells were then plated at the optimal seeding density 24 h before siRNA or drug treatment in triplicate. Plates were incubated for 7 days at 37° C. in 5% CO2. Cells were then lysed with CellTiter-Glo (CTG) (Promega, Madison, Wis.) and chemiluminescent signal was detected with a microplate reader on Day 0, 1, 3, 5 and 7. In addition, an untreated plate of cells was harvested at the time of drug or siRNA addition (T0) to quantify the starting number of cells. CTG values obtained after the 7 day treatment were expressed as percentages of the T0 value and plotted against time of treatment.
# [2] = system: parental MDA-MB-231 cells; experiment: Cell viability IC50 curves, sensitivity of parental cells to agents; type: cell-based; conditions: parental MDA231
# Source text: as §2, §3
# IRAK1 = IRAK1 (Homo sapiens, UniProt P51617); conditions: cited from earlier work; for ability to inhibit IRAK1: recently reported (ref 38), in vitro and in vivo
# Chain of IRAK1 (P51617 whole entry, species assumed): as the sequence (P51617 whole entry) above
# [3] = system: MDA231 and SUM159 parental and Paclitaxel-resistant sublines (PR); experiment: Cell viability of parental and Paclitaxel-resistant sublines, combination treatment; type: cell-based; conditions: MDA231-PR cells, in combination with PTX
# Procedure: as §3
# [4] = system: BT549, MB436, MB468, MDA231 and MDA231-LM2 cells; experiment: Mammosphere formation assay; type: cell-based; conditions: Ginsenosides CK and Rb1
# Procedure: Active growing cells were treated with 0.05% trypsin for 10 minutes then passed through […] cell strainer to achieve single cell suspension. Cells were plated (MDA231: 1×10^4; MB436: 3×10^4; MB468: 4×10^4 cells/well, BT549: 3×10^4, MDA231-LM2: 3×10^4) seeded in 6-well ultra-low attachment plates (Corning, Corning, N.Y., cat: CLS3471) in Mammocult medium (Stem cell Technologies, Vancouver, BC, Canada), supplemented with fresh hydrocortisone (0.51 μg/ml) and heparin (1:500). Tumorspheres were cultured for 7 days prior to being counted and photographed. Imaging and quantification were done using GelCount™ apparatus and associated software (Oxford Optronix, Abingdon, UK). For serial passages of tumorsphere formation assay, the spheres were collected by gentle centrifugation, dissociated to single cells for passaging tumorspheres every 14 days and counted. Tumorspheres were photographed and quantified 7-12 days later using a GelCount Colony Counter after staining with INT.
# [5] = system: p38-MCL-1 signaling in SUM159-PR cells; experiment: Western blot of p-p38, MCL-1 and cleaved PARP; type: cell-based; conditions: inhibitor with Paclitaxel
# Procedure: as §1
smiles,measurement,setting,value
"NS(=O)(=O)c1nn2cc(-c3ccccc3)nc2s1 [JNK inhibitor, AEG 3482]",sensitization of Paclitaxel for apoptosis,[1],not evident
"COc1cccc2c1C(=O)c1c(O)c3c(c(O)c1C2=O)C[C@@](O)(C(=O)CO)C[C@@H]3O[C@H]1C[C@H](N)[C@H](O)[C@H](C)O1 [doxorubicin, Doxorubicin]",induction of p-IRAK1 by chemotherapeutic agent,p-IRAK1 (T209),not seen
same,IRAK1 signaling activated by chemotherapeutic agents,p-IRAK1 (T209),activated
same,shift of the IC50 curve,MDA231-PR cells,marked right shift
Nc1ccn([C@@H]2O[C@H](CO)[C@@H](O)C2(F)F)c(=O)n1 [gemcitabine],sensitivity of paclitaxel-resistant cells to agent,MDA231-PR cells,remained sensitive; also recorded: remained susceptible
O=c1[nH]cc(F)c(=O)[nH]1 [5-fluorouracil],sensitivity of paclitaxel-resistant cells to agent,MDA231-PR cells,poor
same,response of parental cells to agent,[2],poor
"CC(C)=CCC[C@](C)(O[C@@H]1O[C@H](CO)[C@@H](O)[C@H](O)[C@H]1O)[C@H]1CC[C@]2(C)[C@@H]1[C@H](O)C[C@@H]1[C@@]3(C)CC[C@H](O)C(C)(C)[C@@H]3CC[C@]12C [CK, Compound K]",p-IRAK1 in MDA231-LM2 cells,p-IRAK1 (T209); CK 25 μM,inhibit p-IRAK1
same,ability to inhibit IRAK1,IRAK1,ability to inhibit IRAK1
same,effect on Paclitaxel resistance (cell viability and apoptosis),[3],combat Paclitaxel resistance; also recorded: combat chemoresistance
same,MDA231-LM2 mammosphere growth,[4],abolish; also recorded: inhibit TNBC metastatic growth
"CC(C)=CCC[C@](C)(O[C@@H]1O[C@H](CO[C@@H]2O[C@H](CO)[C@@H](O)[C@H](O)[C@H]2O)[C@@H](O)[C@H](O)[C@H]1O)[C@H]1CC[C@]2(C)[C@@H]1[C@H](O)C[C@@H]1[C@@]3(C)CC[C@H](O[C@@H]4O[C@H](CO)[C@@H](O)[C@H](O)[C@H]4O[C@@H]4O[C@H](CO)[C@@H](O)[C@H](O)[C@H]4O)C(C)(C)[C@@H]3CC[C@]12C [Rb1, Ginsenoside Rb1]",ability to inhibit IRAK1,IRAK1,ability to inhibit IRAK1
"Cc1ccc(S(=O)(=O)/C=C/C#N)cc1 [Bay 117082, BAY-11-7082]",sensitization of Paclitaxel for apoptosis,[1],failed to sensitize
O=C(Nc1cc(Cl)cc2c1[nH]c1cnccc12)c1cccnc1 [PS1145],sensitization of Paclitaxel for apoptosis,[1],failed to sensitize
CC[C@]1(O)C[C@H]2CN(CCc3c([nH]c4ccccc34)[C@@](C(=O)OC)(c3cc4c(cc3OC)N(C=O)[C@H]3[C@@](O)(C(=O)OC)[C@H](OC(C)=O)[C@]5(CC)C=CCN6CC[C@]43[C@@H]65)C2)C1 [Vincristine],IRAK1 signaling activated by chemotherapeutic agents,p-IRAK1 (T209),activated
same,shift of the IC50 curve,MDA231-PR cells,marked right shift
same,sensitivity of paclitaxel-resistant cells to agent,MDA231-PR cells,resistant
N.N.[Cl][Pt][Cl] [cisplatin],induction of p-IRAK1 by chemotherapeutic agent,p-IRAK1 (T209),not seen
same,sensitivity of paclitaxel-resistant cells to agent,MDA231-PR cells,remained sensitive; also recorded: remained susceptible
"C[C@@H]1CN(Cc2ccc(F)cc2)[C@@H](C)CN1C(=O)c1cc2c(C(=O)C(=O)N(C)C)cn(C)c2cc1Cl [p38 inhibitor, SCIO 469]",PARP cleavage,[5],increased PARP cleavage
same,p-p38 and MCL-1 expression,[5],decrease
same,sensitization of Paclitaxel for apoptosis,[1],able to phenocopy IRAK-inh to sensitize Paclitaxel-induced apoptosis
C1=C/COCc2cc(ccc2OCCN2CCCC2)Nc2nccc(n2)-c2cccc(c2)COC/1 [pacritinib],IRAK1-inhibitory activity,IRAK1; through communication with CTI BioPharma,IRAK1-inhibitory activity
same,sensitivity of paclitaxel-resistant cells to agent,MDA231-PR cells,sensitive; also recorded: remained susceptible
same,effect of treatment on paclitaxel-resistant MDA-MB-231 cells,[1]; compared with IRAK-inh,effects similar to those seen with IRAK-inh
